Results taken from US5523299A, “5-(2-oxyphenyl)-pyrrole derivatives as dopamine D3 receptor antagonists” (SmithKline Beecham PLC, priority 1992, dated 1996).
Structures can show the parent of a compound that is named as a salt.

These compounds were tested against human D3 dopamine receptors (Homo sapiens, UniProt P35462) (assay: [125I] iodosulpride displacement binding to cloned dopamine receptors expressed in CHO cells). Conditions: displacement of 0.1 nM [125I] iodosulpride, cloned receptor in CHO cell membranes, 30 min at 37° C.
human D3 dopamine receptors, sequence (P35462 whole entry): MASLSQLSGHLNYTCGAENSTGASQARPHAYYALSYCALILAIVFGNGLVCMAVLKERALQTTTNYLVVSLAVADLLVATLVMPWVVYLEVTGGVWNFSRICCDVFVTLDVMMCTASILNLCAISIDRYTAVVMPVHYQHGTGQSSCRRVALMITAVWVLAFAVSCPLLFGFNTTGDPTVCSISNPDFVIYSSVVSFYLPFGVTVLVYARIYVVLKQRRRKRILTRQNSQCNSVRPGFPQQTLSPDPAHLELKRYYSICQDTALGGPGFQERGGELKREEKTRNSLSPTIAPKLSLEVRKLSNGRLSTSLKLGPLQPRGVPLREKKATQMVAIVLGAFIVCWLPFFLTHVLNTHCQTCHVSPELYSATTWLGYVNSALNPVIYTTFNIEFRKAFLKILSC
Procedure: The inhibition constants (Ki) of test compounds for displacement of [^125 I] iodosulpride binding to human D2 and D3 dopamine receptors expressed in CHO cells have been determined. […] Cultures were grown as monolayers or in suspension in standard cell culture media. Cells were recovered by scraping (from monolayers) or by centrifugation (from suspension cultures), and were washed two or three times by suspension in phosphate buffered saline followed by collection by centrifugation. Cell pellets were stored frozen at -40° C. Crude cell membranes were prepared by homogenisation followed by high-speed centrifugation, and characterisation of cloned receptors achieved by radioligand binding.
Cell pellets were gently thawed at room temperature, and resuspended in about 20 volumes of ice-cold 50 mM Tris salts (pH 7.4 @37° C.), 20 mM EDTA, 0.2M sucrose. The suspension was homogenised using an Ultra-Turrax at full speed for 15 sec. The homogenate was centrifuged at 18,000 r.p.m for 20 min at 4° C. in a Sorvall RC5C centrifuge. The membrane pellet was resuspended in ice-cold 50 mM Tris salts (pH 7.4 @37° C.), using an Ultra-Turrax, and recentrifuged at 18,000 r.p.m for 15 min at 4° C. in a Sorvall RC5C. The membranes were washed two more times with ice-cold 50 mM Tris salts (pH 7.4 @37° C.). The final pellet was resuspended in 50 mM Tris salts (pH 7.4 @37° C.), and the protein content determined using bovine serum albumin as a standard (Bradford, M. M. (1976) Anal. Biochem. 72, 248-254).
Crude cell membranes were incubated with 0.1 nM [^125 I] iodosulpride (~2000 Ci/mmol; Amersham, U.K.), and the test compound in a buffer containing 50 mM Tris salts (pH 7.4 @37° C.), 120 mM NaCl, 5 mM KCl, 2 mM CaCl2, 1 mM MgCl2, 0.1% (w/v) bovine serum albumin, in a total volume of 1 ml for 30 min at 37° C. Following incubation, samples were filtered using a Brandel Cell Harvester, and washed three times with ice-cold 50 mM Tris salts (pH 7.4 @37° C.), 120 mM NaCl5 mM KCl2 mM CaCl2, 1 mM MgCl2. The radioactivity on the filters was measured using a Cobra gamma counter (Canberra Packard). Non-specific binding was defined as the radioligand binding remaining after incubation in the presence of 100 μM iodosulpride. For competition curves, 14 concentrations (half-log dilutions) of competing cold drug were used.
Competition curves were analysed simultaneously whenever possible using non-linear least-squares fitting procedures, capable of fitting one, two or three site models.

Row | SMILES | IC50
1 | CCS(=O)(=O)c1ccc(OC)c(-c2ccc(C(C)N3CCCCC3)[nH]2)c1 (single isomer, unassigned; slower eluting) [Example 49, 2-(5-Ethylsulphonyl-2-methoxyphenyl)-5-[1-(1-piperidinyl)-ethyl)-1H-pyrrole, slower eluting enantiomer] | 0.2 to 26 nM
2 | COc1c(Br)cc(Br)cc1-c1ccc(CN2CCCCC2)[nH]1 [Example 1, 2-(3,5-Dibromo-2-methoxyphenyl)-5-(1-piperidinylmethyl)-1H-pyrrole hydrochloride] | 0.2 to 26 nM
3 | CCS(=O)(=O)c1ccc(OC)c(-c2ccc(CN3CCCCC3)[nH]2)c1 [Example 2, 2-(5-Ethylsulphonyl-2-methoxyphenyl)-5-(1-piperidinylmethyl)-1H-pyrrole] | 0.2 to 26 nM
4 | CCS(=O)(=O)c1ccc(OC)c(-c2ccc(C(C)N3CCCCC3)[nH]2)c1 (stereo not shown) [Example 16, 2-(5-Ethylsulphonyl-2-methoxyphenyl)-5-[1-(1-piperidinyl)-ethyl)-1H-pyrrolehydrochloride] | 0.2 to 26 nM
5 | CCN(Cc1ccccc1)Cc1ccc(-c2cc(S(=O)(=O)CC)ccc2OC)[nH]1 [Example 27, 2-(5-Ethylsulphonyl-2-methoxyphenyl)-5-(N-benzyl-N-ethyl)-aminomethyl-1H-pyrrole hydrochloride] | 0.2 to 26 nM
6 | CCN(Cc1ccccc1)Cc1ccc(-c2cc(S(=O)(=O)CC)cc(Br)c2OC)[nH]1 [Example 30, 2-(3-Bromo-5-ethylsulphonyl-2-methoxyphenyl)-5-(N-benzyl-N-ethyl)aminomethyl-1H-pyrrole hydrochloride] | 0.2 to 26 nM
7 | COc1cc(Br)cc(-c2ccc(C(C)N3CCCCC3)[nH]2)c1OC (stereo not shown) [Example 36, 2-(2,3-Dimethoxy-5-bromophenyl)-5-[1-(1-piperidinyl)ethyl]-1H-pyrrole hydrochloride] | 0.2 to 26 nM
